{"source": "patent US4777049A", "about": "“Constant release system with pulsed release” (priority 1987, dated 1988)", "key": {"gonadotropin secretion": {"system": "gonadotropin secretion", "conditions": "Drugs, Vol. 23, 207-226, 1982, cited from earlier work"}, "[1]": {"conditions": "cited from earlier work"}}, "note": "Where two headings read alike, the source gives them in different places.", "data": [{"molecule": "C[C@]12CC[C@@H]3c4ccc(O)cc4CC[C@H]3[C@@H]1CC[C@@H]2O", "note": "[estradiol]", "values": [{"measurement": "effect on gonadotropin secretion", "setting": "gonadotropin secretion; high pulsed doses", "value": "stimulates the ovulating surge"}, {"measurement": "effect on gonadotropin secretion", "setting": "gonadotropin secretion; low pulsed dose", "value": "inhibits"}]}, {"molecule": "C[C@H]1C[C@@H]2[C@H]([C@@H](O)C[C@@]3(C)[C@H]2CC[C@]3(O)C(=O)CO)[C@@]2(C)C=CC(=O)C=C12", "note": "[methylprednisolone]", "values": [{"measurement": "medical effect of pulsed treatment", "setting": "[1]; collagenic and progressing glomerulonephritis", "value": "beneficial medical effect"}]}, {"molecule": "CC[C@H](C)[C@@H]1NC(=O)[C@H](Cc2ccc(O)cc2)NC(=O)[C@@H](N)CSSC[C@@H](C(=O)N2CCC[C@H]2C(=O)N[C@@H](CC(C)C)C(=O)NCC(N)=O)NC(=O)[C@H](CC(N)=O)NC(=O)[C@H](CCC(N)=O)NC1=O", "note": "[oxytocin]", "values": [{"measurement": "medical effect of pulsed treatment", "setting": "[1]; induction of labor", "value": "beneficial medical effect"}]}, {"molecule": "CO[C@H]1/C=C/O[C@@]2(C)Oc3c(C)c(O)c4c(O)c(c(/C=N/N5CCN(C)CC5)c(O)c4c3C2=O)NC(=O)/C(C)=C\\C=C\\[C@H](C)[C@H](O)[C@@H](C)[C@@H](O)[C@@H](C)[C@H](OC(C)=O)[C@@H]1C", "note": "[rifampicin]", "values": [{"measurement": "medical effect of pulsed treatment", "setting": "[1]; leprosy", "value": "beneficial medical effect"}]}, {"molecule": "CC(C)(C)NCC(O)c1ccc(O)c(CO)c1", "note": "(centres unmarked) [salbutamol]", "values": [{"measurement": "solubility", "setting": "physchem; distilled water, water", "value": 275, "unit": "mg/mL"}, {"measurement": "solubility", "setting": "physchem; saturated sodium chloride solution", "value": 16, "unit": "mg/mL"}]}, {"molecule": "insulin", "values": [{"measurement": "medical effect of pulsed treatment", "setting": "[1]; control of hyperglycemia", "value": "beneficial medical effect"}]}]}
